Laboratory results: DBAASP
In brackets after ≈: the same amount, converted by molar mass. Several values for one entry are separate records, joined by “and”; a condition that tells them apart may be missing. Equal values may be shown once.

Columns and labels:
Assay in all cases: ≥ marks a high value that may be exact or a test limit, other limits are often not marked, values filed in µg/mL are converted to µM
[1] = test system: Listeria monocytogenes DBFIQ LM3
[2] = test system: Staphylococcus aureus DBFIQ S21
Candida albicans 01U = test system: Candida albicans 01U
Candida albicans 38U = test system: Candida albicans 38U
Candida parapsilosis = test system: Candida parapsilosis
[3] = test system: Cryptococcus neoformans L26
[4] = test system: Cryptococcus neoformans L30
[5] = test system: Trichophyton mentagrophytes
Trichophyton rubrum = test system: Trichophyton rubrum
[6] = test system: Clavibacter michiganensis subsp. michiganensis DSM 46294
[7] = test system: Pectobacterium carotovorum subsp. carotovorum DSM 30168
[8] = test system: Pseudomonas corrugata DSM 7228
[9] = test system: Pseudomonas syringae pv. syringae DSM 10604
[10] = test system: Pseudomonas syringae pv. tomato DC3000
[11] = test system: Staphylococcus aureus 90857
[12] = test system: Xanthomonas vesicatoria DSM 50861
[13] = test system: Acinetobacter baumannii ATCC 19606
[14] = test system: Aspergillus fumigatus ATCC 26430
[15] = test system: Enterococcus faecalis ATCC 19433
[16] = test system: Escherichia coli ATCC 25922
Escherichia coli D21 = test system: Escherichia coli D21
[17] = test system: Pseudomonas aeruginosa ATCC 27853
[18] = test system: Staphylococcus aureus II ATCC 6538P
Aspergillus fumigatus = test system: Aspergillus fumigatus
Escherichia coli D22 = test system: Escherichia coli D22
Micrococcus luteus A270 = test system: Micrococcus luteus A270
[19] = test system: Neurospora crassa CBS 327-54
[20] = test system: Candida albicans ATCC 14053
Escherichia coli D31 = test system: Escherichia coli D31
[21] = test system: Klebsiella pneumoniae ATCC 13883
[22] = test system: Staphylococcus aureus ATCC 25923
[23] = test system: Enterococcus faecalis ATCC 29212
[24] = test system: Escherichia coli ATCC 11775
[25] = test system: Escherichia coli ATCC 43827
Azotobacter vinelandii = test system: Azotobacter vinelandii
[26] = test system: Salmonella enterica subsp. enterica serovar Typhimurium ATCC 14028
[27] = test system: Staphylococcus aureus ATCC 29213
[28] = test system: Staphylococcus epidermidis PIA 8400

**Q.** Which MIC [1] does the source give for `CC[C@H](C)[C@H](NC(=O)[C@H](C)NC(=O)[C@@H](NC(=O)[C@H](C)NC(=O)CN)[C@@H](C)O)C(=O)N[C@@H](CCCCN)C(=O)N[C@@H](CCC(N)=O)C(=O)N[C@H](C(=O)N[C@@H](CCCCN)C(=O)N[C@@H](CCCCN)C(=O)N[C@@H](CC(C)C)C(=O)N[C@@H](Cc1ccccc1)C(=O)N[C@@H](CCCCN)C(=O)N[C@@H](CCCCN)C(=O)N[C@@H](CCCCN)C(=O)NCC(=O)NCC(N)=O)C(C)C` [GATAIKQVKKLFKKKGG] here?
**A.** Its MIC is 17.8 µM (≈ 32.1 µg/mL).

**Q.** What about the MIC [2] of the same compound?
**A.** Its MIC is 8.9 µM (≈ 16 µg/mL).

**Q.** What does the source list for `CC[C@H](C)[C@H](NC(=O)[C@H](CC(C)C)NC(=O)[C@H](CCC(=O)O)NC(=O)[C@H](CO)NC(=O)[C@H](CCCN=C(N)N)NC(=O)[C@@H](N)CO)C(=O)N[C@H](C(=O)N[C@@H](Cc1cnc[nH]1)C(=O)N[C@@H](CCC(N)=O)C(=O)N[C@@H](CCCN=C(N)N)C(N)=O)C(C)C` [SRSELIVHQR]?
**A.** MIC (Candida albicans 01U): ≥ 52.3 µM; MIC (Candida albicans 38U): 26.1 µM (≈ 32 µg/mL); MIC (Candida parapsilosis): ≥ 209 µM; MIC [3]: ≥ 105 µM; MIC [4]: ≥ 209 µM; MIC [5]: ≥ 209 µM; MIC (Trichophyton rubrum): 26.1 µM (≈ 32 µg/mL)

**Q.** What does the source list for `CC[C@H](C)[C@H](NC(=O)[C@H](CCCN=C(N)N)NC(=O)[C@@H](N)CC(C)C)C(=O)N[C@@H](CC(C)C)C(=O)N[C@@H](CCCN=C(N)N)C(=O)N[C@@H](CCCN=C(N)N)C(=O)N[C@@H](CC(C)C)C(=O)N[C@@H](CC(C)C)C(=O)N[C@@H](CCCN=C(N)N)C(=O)N[C@@H](CCCN=C(N)N)C(=O)N[C@@H](CC(C)C)C(=O)N[C@@H](Cc1ccccc1)C(N)=O` [LRILRRLLRRLF]?
**A.** MIC [6]: 3.08 µM (≈ 5 µg/mL); MIC [7]: 6.15 µM (≈ 9.99 µg/mL); MIC [8]: 1.54 µM (≈ 2.5 µg/mL); MIC [9]: 6.15 µM (≈ 9.99 µg/mL); MIC [10]: 0.615 µM (≈ 0.999 µg/mL); MIC [11]: 6.25 µM (≈ 10.2 µg/mL); MIC [12]: 3.08 µM (≈ 5 µg/mL)

**Q.** `CC(C)C[C@H](NC(=O)[C@H](CCCN=C(N)N)NC(=O)[C@H](CCCN=C(N)N)NC(=O)[C@H](CC(C)C)NC(=O)[C@H](CC(C)C)NC(=O)[C@H](CCCN=C(N)N)NC(=O)[C@H](CCCN=C(N)N)NC(=O)[C@H](CC(C)C)NC(=O)[C@H](CC(C)C)NC(=O)[C@H](CCCN=C(N)N)NC(=O)[C@H](CCCN=C(N)N)NC(=O)[C@H](CC(C)C)NC(=O)[C@H](C)NC(=O)[C@H](CC(=O)O)NC(=O)[C@@H](N)CC(=O)O)C(=O)O` [DDALRRLLRRLLRRL] was tested. Which MIC [13] did it give?
**A.** The MIC was 75 µM and 100 µM.

**Q.** And the MIC [14]?
**A.** Its MIC is 6.2 µM and 3.1 µM.

**Q.** What about the MIC [15] of the same compound?
**A.** The MIC was no less than 100 µM.

**Q.** What about the MIC [16] of the same compound?
**A.** The MIC was 100 µM (≈ 194 µg/mL).

**Q.** What about the MIC (Escherichia coli D21) of the same compound?
**A.** The MIC was no less than 50 µM.

**Q.** What about the MIC [17] of the same compound?
**A.** Its MIC is 50 µM (≈ 96.8 µg/mL).

**Q.** What about the MIC [18] of the same compound?
**A.** The MIC was ≥ 50 µM and 31 µM.

**Q.** `CSCC[C@H](NC(=O)[C@H](CO)NC(=O)[C@@H](N)CO)C(=O)N[C@@H](CCCCN)C(=O)N[C@@H](CC(C)C)C(=O)N[C@@H](CO)C(=O)N[C@@H](Cc1ccccc1)C(=O)N[C@@H](CCCN=C(N)N)C(=O)N[C@@H](C)C(=O)N[C@@H](CCCN=C(N)N)C(=O)N[C@@H](C)C(=O)N[C@@H](Cc1ccc(O)cc1)C(=O)N[C@@H](CO)C(=O)N[C@@H](Cc1ccccc1)C(=O)N[C@@H](CCCN=C(N)N)C(=O)NCC(=O)N1CCC[C@H]1C(=O)NCC(=O)N1CCC[C@H]1C(=O)N[C@@H](CCC(N)=O)C(=O)N[C@@H](CC(C)C)C(=O)O` [SSMKLSFRARAYSFRGPGPQL] was tested. Which MIC (Aspergillus fumigatus) did it give?
**A.** Its MIC is no less than 80 µM.

**Q.** What about the MIC (Escherichia coli D22) of the same compound?
**A.** The MIC was no less than 40 µM.

**Q.** What about the MIC (Micrococcus luteus A270) of the same compound?
**A.** The MIC was 2 µM (≈ 4.71 µg/mL).

**Q.** And the MIC [19]?
**A.** The MIC was 5 µM (≈ 11.8 µg/mL).

**Q.** For `CC[C@H](C)[C@@H]1NC(=O)CNC(=O)[C@H](CCCCN)NC(=O)[C@H](CC(N)=O)NC(=O)[C@H](CCCNC(=N)N)NC(=O)[C@H](C(C)C)NC(=O)[C@@H](NC(=O)[C@H](CO)NC(=O)[C@@H](NC(=O)[C@@H]2CCCN2C(=O)[C@@H](N)CC(N)=O)C(C)C)CSSC[C@@H]2NC(=O)[C@H](CCCCN)NC(=O)[C@H](C(C)C)NC(=O)[C@H](C)NC(=O)[C@H](CCCNC(=N)N)NC(=O)CNC(=O)[C@H](C(C)C)NC(=O)[C@@H]3CSSC[C@H](NC1=O)C(=O)N[C@@H](C(C)C)C(=O)N1CCC[C@H]1C(=O)N[C@@H]([C@@H](C)CC)C(=O)N[C@@H](CCCNC(=N)N)C(=O)N[C@@H](CSSC[C@@H](C(=O)N[C@@H](CCCNC(=N)N)C(=O)N[C@@H](CCCCN)C(=O)N[C@@H](CCCCN)C(=O)O)NC2=O)C(=O)N1CCC[C@H]1C(=O)NCC(=O)N[C@@H](CO)C(=O)N[C@@H](CCSC)C(=O)N[C@@H](CCCCN)C(=O)N[C@@H](CCC(N)=O)C(=O)N[C@@H]([C@@H](C)CC)C(=O)NCC(=O)N[C@@H]([C@@H](C)O)C(=O)N3` [NPVSCVRNKGICVPIRCPGSMKQIGTCVGRAVKCCRKK], which MIC [20] is on record?
**A.** The MIC was 2.07 µM (≈ 8.47 µg/mL).

**Q.** What about the MIC (Escherichia coli D31) of the same compound?
**A.** Its MIC is 4.23 µM (≈ 17.3 µg/mL).

**Q.** What about the MIC [21] of the same compound?
**A.** The MIC was 4.23 µM (≈ 17.3 µg/mL).

**Q.** What about the MIC [17] of the same compound?
**A.** The MIC was 8.64 µM (≈ 35.3 µg/mL).

**Q.** And the MIC [22]?
**A.** The MIC was 8.64 µM (≈ 35.3 µg/mL).

**Q.** `NC(=O)CC[C@H](NC(=O)[C@H](Cc1c[nH]c2ccccc12)NC(=O)[C@H](CCCN=C(N)N)NC(=O)[C@@H](N)CCCN=C(N)N)C(=O)N[C@@H](Cc1c[nH]c2ccccc12)C(=O)N[C@@H](CCCN=C(N)N)C(=O)O` [RRWQWR] was tested. Which MIC [23] did it give?
**A.** Its MIC is 44 µM (≈ 43.4 µg/mL).

**Q.** What about the MIC [24] of the same compound?
**A.** The MIC was 22 µM (≈ 21.7 µg/mL).

**Q.** What about the MIC [16] of the same compound?
**A.** Its MIC is 22 µM (≈ 21.7 µg/mL).

**Q.** And the MIC [25]?
**A.** Its MIC is 5 µM (≈ 4.94 µg/mL).

**Q.** Which results are given for `CC(C)[C@H](NC(=O)[C@H](CCCCN)NC(=O)[C@@H](NC(=O)[C@@H](NC(=O)[C@H](CCC(=O)O)NC(=O)[C@H](CC(N)=O)NC(=O)[C@H](CCC(=O)O)NC(=O)[C@H](CCCCN)NC(=O)[C@H](CC(=O)O)NC(=O)[C@H](CC(=O)O)NC(=O)[C@H](CCC(=O)O)NC(=O)[C@H](CCC(=O)O)NC(=O)[C@H](CCC(=O)O)NC(=O)[C@@H](NC(=O)[C@H](CCCCN)NC(=O)[C@H](CC(=O)O)NC(=O)[C@H](CC(=O)O)NC(=O)[C@@H](N)CC(=O)O)[C@@H](C)O)[C@@H](C)O)[C@@H](C)O)C(=O)N[C@H](C(=O)N[C@@H](CCC(=O)O)C(=O)O)C(C)C` [DDDKTEEEDDKENETTKVVE]?
**A.** MIC (Azotobacter vinelandii): ≥ 84.6 µM; MIC [26]: 42.3 µM (≈ 100 µg/mL)

**Q.** `CC[C@H](C)[C@H](NC(=O)[C@H](CCCCN)NC(=O)[C@@H](NC(=O)[C@H](CCCN=C(N)N)NC(=O)[C@H](CCCN=C(N)N)NC(=O)[C@@H](N)CCCN=C(N)N)[C@@H](C)CC)C(=O)N[C@@H](CCCN=C(N)N)C(=O)N[C@@H](Cc1c[nH]c2ccccc12)C(=O)N[C@@H](Cc1ccc(O)cc1)C(N)=O` [RRRIKIRWY] was tested. Which MIC [23] did it give?
**A.** Its MIC is 186 µM (≈ 251 µg/mL).

**Q.** And the MIC [16]?
**A.** The MIC was 23 µM (≈ 31 µg/mL).

**Q.** What about the MIC [17] of the same compound?
**A.** The MIC was 23 µM and 46.8 µM.

**Q.** And the MIC [27]?
**A.** The MIC was 23 µM (≈ 31 µg/mL).

**Q.** What about the MIC [28] of the same compound?
**A.** The MIC was 23 µM and 11.9 µM.
